Among the data in PubChem BioAssay AID850 (SRMLSC, 2007) are IC50 and inhibition values, retold here.

Assay [1] relates to Saccharomyces cerevisiae growth inhibition, permissive control. The assay can be described thus: concentration-response yeast growth inhibition under permissive conditions, counter-assay for yeast lifespan-shortening chemical project (AID 850).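 Note: growth read as optical density after one day of incubation.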
Assay in assay [2]: as above
The following applies: Saccharomyces cerevisiae growth inhibition, permissive control, measured here: maximum growth inhibition, stronger effect = higher value.

pIC50: −log10 of the molar value. Calls of active or inactive are those of the source. The rule behind the calls is not given here. Where only a bound is given, the exact number is not on record here.

Take `CCC1CCCCN1C(=O)CSc1nnc(-c2ccc(OC)cc2)o1` (stereo not drawn): in assay [1], the IC50 is > 100 µM (inactive). In addition, the inhibition in assay [2] (at 12.5 µM) was 24.1%.
Take `CCC(C)NC(=O)CS(=O)Cc1nc(-c2ccccc2C)oc1C` (stereo not drawn): the IC50 in assay [1] is > 100 µM (inactive). Moreover, in assay [2] (at 1.563 µM), the inhibition worked out at 23.5%.
Turning to `Cc1nc2cc3ccccc3cc2c(=O)[nH]1`, the IC50 in assay [1] is > 100 µM (inactive). Moreover, the inhibition in assay [2] (at 0.781 µM) worked out at 13.9%.
On to `Cc1csc(NC(=O)Cc2coc3cc(C)c(C(C)C)cc23)n1`, for which the IC50 in assay [1] is > 100 µM (inactive). Moreover, in assay [2] (at 3.125 µM), the inhibition amounted to 10.1%.
With `C/C(=N\Nc1ccc(Cl)cc1)c1ccccn1`, the pIC50 in assay [1] was 5.00. In addition, the inhibition in assay [2] (at 50 µM) came out at 97.1%.
In the case of `COC(=O)Cn1c2ccc(C)cc2c2nc(C)sc21`, the IC50 in assay [1] was > 100 µM (inactive). Moreover, the inhibition in assay [2] (at 50 µM) is 16%.
For the compound `Cc1nn2c(-c3ccco3)nnc2c2ccccc12`, in assay [1], the IC50 is > 100 µM (inactive). Besides, the inhibition in assay [2] (at 25 µM) turned out to be 14.3%.
Regarding `CC(C)(C)n1nc(-c2ccc(Cl)cc2)c2c(N)ncnc21`, the pIC50 in assay [1] is 5.96. Further, in assay [2] (at 50 µM), the inhibition is 80.7%.
In the case of `Oc1ccc(N=Nc2cccc(Cl)c2)cc1C=Nc1ccc(N2CCOCC2)cc1`, the IC50 in assay [1] was > 100 µM (inactive). In addition, in assay [2] (at 12.5 µM), the inhibition was determined as 2.01%.
In the case of `CCCn1c(C)cc(C(=O)COC(=O)c2ccc[nH]c2=O)c1C`, the IC50 in assay [1] is > 100 µM (inactive). Moreover, the inhibition in assay [2] (at 50 µM) was found to be 17.4%.
For `COc1ccccc1N1CCN(C(CNC(=O)c2ccco2)c2cccnc2)CC1` (stereo not drawn), in that order: > 100 µM (inactive) and 18.3%.
Regarding `O=C(N/N=C/c1sc2ccccc2c1O)c1cccc2ccccc12`, the pIC50 in assay [1] was 4.82. Also, in assay [2] (at 50 µM), the inhibition stood at 93.6%.
For the compound `CCCCc1ccc(NC(=S)Nc2ccc(Nc3ccc(OC)cc3)cc2)cc1`, the IC50 in assay [1] was > 100 µM (inactive). In addition, in assay [2] (at 50 µM), the inhibition is 16.8%.
In the case of `Cc1ncc(CC(=O)n2cc(C(=O)c3cc(Cl)ccc3O)cn2)s1`, the pIC50 in assay [1] was 5.27. Also, in assay [2] (at 50 µM), the inhibition turned out to be 100%.
With `CCCc1cc(C(=O)NC2CCCCC2)no1`, in assay [1], the IC50 is > 100 µM (inactive). The inhibition in assay [2] (at 0.391 µM) was found to be 10.3%.
As to `CC1=C(C)/C(=N\OS(=O)(=O)c2ccc(C)cc2)C=CC1=O`, in assay [1], the pIC50 was 5.06. In addition, the inhibition in assay [2] (at 25 µM) stood at 99.2%.
As for `Cc1nn(-c2cccc(C(F)(F)F)c2)c(Cl)c1/C=N/Nc1cccc(C(=O)O)c1`, in assay [1], the pIC50 was 4.39. In addition, in assay [2] (at 50 µM), the inhibition came out at 81.6%.
For `Cc1cc(O)c(/C=N/Nc2ccccc2)c(=O)o1`, in that order: 4.71 and 97.9%.
For `C/C(=N\NC(=O)c1ccc(CSc2cccc3cccnc23)cc1)C1CCCCC1` the same measures were 4.53 and 93.4%.
For `CCC(C)/C(C)=N/NC(=O)c1ccc(COc2ccc(Cl)c(C)c2)cc1` (stereo not drawn), in that order: 4.57 and 83.8%.
In the case of `C=C(C)COc1ccc(-c2[nH]ncc2-c2ccccc2)c(O)c1`, the pIC50 in assay [1] is 4.41. For the same compound, in assay [2] (at 50 µM), the inhibition was determined as 86.8%.
For `O=C(CSc1cccc[n+]1[O-])c1cc2ccccc2o1`, in that order: 5.43 and 99.2%.
For `CCc1oc2ccccc2c1C(=O)c1cc(Br)c(O)c(Br)c1`, in that order: 4.44 and 87.7%.
For `COc1ccc(-c2n[nH]c(C)c2-c2ccc(Cl)cc2)c(O)c1`, the pIC50 in assay [1] is 4.47. In addition, the inhibition in assay [2] (at 50 µM) is 99%.
Regarding `O=C(O)c1cc(-c2ccc(/C=N/Nc3ccc(Cl)cc3)o2)ccc1Cl`, the pIC50 in assay [1] was 5.36. Besides, the inhibition in assay [2] (at 50 µM) came to 98.8%.
For the compound `CCCCN(CCCC)C(=S)N/N=C/c1c(C)[nH]n(-c2ccccc2)c1=O`, the IC50 in assay [1] is > 100 µM (inactive). The inhibition in assay [2] (at 0.781 µM) was determined as 19.7%.
In the case of `Cn1c(-c2ccco2)nc2cc3ccccc3cc21`, the pIC50 in assay [1] was 4.31. In assay [2] (at 50 µM), the inhibition stood at 52.4%.
Take `O=C(Cc1ccccc1)NCCc1cn2ccsc2n1`: the IC50 in assay [1] is > 100 µM (inactive). For the same compound, in assay [2] (at 0.391 µM), the inhibition came out at 26%.
Consider `O=[N+]([O-])c1ccc(CN2CCCCCC2)s1`, for which the IC50 in assay [1] was > 100 µM (inactive). The inhibition in assay [2] (at 25 µM) is 28.2%.
Take `CC1=C(C)/C(=N\OS(=O)(=O)c2ccccc2)C=CC1=O`: the pIC50 in assay [1] is 5.21. Moreover, the inhibition in assay [2] (at 50 µM) was determined as 99%.
For the compound `O=C1C(=C2CCCCC2)SC(=S)N1Cc1ccco1`, in assay [1], the IC50 is > 100 µM (inactive). In addition, the inhibition in assay [2] (at 50 µM) was determined as 11.2%.
`O=C(/C=C/c1ccccc1Cl)c1ccccc(=O)c1O`: in assay [1], the negative-log IC50 (pIC50) is 4.94. For the same compound, the inhibition in assay [2] (at 50 µM) was found to be 101%.
On to `CN1CCN(CC(=O)N2CCn3c4c(c5cc(C6CCCCC6)ccc53)CCCC42)CC1` (stereo not drawn), for which the IC50 in assay [1] is > 100 µM (inactive). Besides, in assay [2] (at 1.563 µM), the inhibition worked out at 6.73%.
For the compound `O=C(NNC(=S)NC(=O)C12CC3CC(CC(C3)C1)C2)c1ccncc1`, in assay [1], the pIC50 was 4.87. Moreover, in assay [2] (at 50 µM), the inhibition was determined as 94.8%.

One may read the IC50 as the concentration that gives 50% inhibition. By inhibition is commonly meant the drop in the measured response relative to a control, in per cent. As a reminder, the pIC50 is −log10 of the IC50, conventionally taken in molar units.
